The values that follow come from patent publication US10787426B2, “Method of treating autism spectrum disorders using piperazine-1-carboxamidine or pharmaceutically acceptable salt thereof” (NEUROVENTI, priority 2016, dated 2020).

What all share (type): in vivo, Sprague-Dawley (SD) rats
Data set [1] concerns valproic acid-induced autism rat models. The experiment in a line: Social preference test (familiar side vs novel side). The settings on record: 12.5 mg/kg or 25 mg/kg, intraperitoneal once a day, FIG. 2B. As to the method: (§1) In particular, valproic acid was subcutaneously injected into female adult Sprague-Dawley (SD) rats on day 12 of gestation, at a dose of 450 mg/kg and in an administration amount of 10 ml/kg, and then the SD rats gave birth to babies. When the born babies were 21 days old, they were grouped according to body weight and selected as autism rat models. As a group administered a solvent, on day 12 of gestation, female adult SD rats were administered a saline solution instead of valproic acid, at the same dose and in the same administration amount.
(§2) The autism rat models prepared according to Example <1-1> were intraperitoneally administered piperazine-1-carboxamidine 24 days after birth once a day at a predetermined time. At this time, piperazine-1-carboxamidine was administered at a dose of […], 12.5 mg/kg, 25 mg/kg, or 50 mg/kg, and in an amount of 10 ml/kg. The administration process was repeated until all the experiments were completed, and was performed 30 minutes before experiments, in the case of behavioral experiments.
To further verify an effect of piperazine-1-carboxamidine on treating autism spectrum disorder in valproic acid-induced autism rat models, an experiment for confirming social preference was carried out.
In particular, after social interest was confirmed in Example <2-1>, another identical type of rat were placed in the empty cage at one end of the box structure, and a social interaction experiment for the autism rat models as experimental groups was conducted for 10 minutes. The cage in which rat were placed in Example <2-1> was regarded as a familiar side, the cage in which new rat were placed was regarded as a novel side, and the degree of interest expressed by the autism rat models as experimental groups was confirmed using the EthoVision system by measuring residence time for each case. A significance test was performed using two-way ANOVA, followed by a Bonferroni's post hoc test.

Data set [2] shares this test system. Kind of data set: Electroshock-induced seizure threshold (CC50). As to conditions: 25 mg/kg, intraperitoneal once a day; Litchfield-Wilcoxon method; versus valproic acid-exposed solvent control; FIG. 5. The protocol:
as §1, §2
To confirm an effect of piperazine-1-carboxamidine on treating autism spectrum disorder in autism rat models, electroshock-induced seizure susceptibility was evaluated in autism rat models (Park, Hyung Geun, et al. European journal of pharmacology 574.2, 2007: 112-119; Browning, R. A., et al. Epilepsy research 6.1, 1990: 1-11). […]

Data set [3] shares this test system. Kind of data set: Open field test (hyperactivity and impulsive behavior). As to conditions: 25 or 50 mg/kg, intraperitoneal once a day, open field 10 minutes. As to the method: as §1, §2
To confirm an effect of piperazine-1-carboxamidine on treating autism spectrum disorder in autism rat models, general locomotor activity of the autism rat models was evaluated by an open field test for assaying enhancement and deterioration of motor functions, sedation, excitement, anxiety, depression, the degree of avoidance, and toxicity. […]

Data set [4] has the same test system. The experiment in a line: Repetitive behavior test (grooming time). The settings on record: 12.5 mg/kg or more, intraperitoneal once a day; grooming time over 10 minutes; compared to autism-induced solvent control; FIG. 3. As to the method:
as §1
The autism rat models prepared according to Example <1-1> were intraperitoneally administered piperazine-1-carboxamidine 24 days after birth once a day at a predetermined time. […]
To confirm an autism therapeutic effect of piperazine-1-carboxamidine in valproic acid-induced autism rat models based on these findings, a grooming level enhancement effect was evaluated in the autism rat models.
In particular, the autism rat models of Example <1-2>, which were administered piperazine-1-carboxamidine and aged between 33 days and 38 days, were placed in a cage (42 cm×29 cm×19 cm) without straw litter and adapted thereto for 10 minutes. Thereafter, the grooming time of the autism rat models was measured for 10 minutes to confirm the degree of repetitive behavior. […]

For data set [5] the test system is unchanged. Kind of data set: Social interaction test (three-compartment box, stranger vs empty cage). As to conditions: 6.25 mg/kg or more, intraperitoneal once a day, 10 minutes test, compared to solvent control (VPA), FIG. 2A. As to the method:
as §1, §2
To verify an effect of piperazine-1-carboxamidine on treating autism spectrum disorder in valproic acid-induced autism rat models, changes in social interaction according to whether piperazine-1-carboxamidine was administered or not were examined (Crawley, Jacqueline N. Mental retardation and developmental disabilities research reviews 10.4 (2004): 248-258). […]

Where [6] appears, read: 10 minutes test, versus autism-induced solvent control.

As to `N=C(N)N1CCNCC1` [piperazine-1-carboxamidine], in data set [1] (setting [6]), the “level of interest in the familiar side, residence time” value is given as “decreased” and the “level of interest in the novel side, residence time” value was “increased”. Further, the social preference patterns result in data set [1] (relative to normal controls) is listed as “restored to levels similar to those of the normal controls”. In data set [2], the “CC50 (convulsive current 50, electroshock-induced seizure threshold)” value was “significantly increased”. The “emotional disturbance-related movement in the central region (ratio of moving distance in central region to total)” value in data set [3] (FIG. 4B) is “reduced to levels of the normal controls”. Moreover, in data set [3] (versus autism-induced solvent control, FIG. 4A), the “degree of hyperactivity (total moving distance)” value is given as “significantly decreased”. The “degree of grooming (grooming time, repetitive behavior)” value in data set [4] is on record as “decreased”. Also, the “degree of interest in new rat (strangers), residence time” value in data set [5] (30 minutes before test) is “significantly increased”. Further, in data set [5], the “degree of interest in the new empty side, residence time” value is listed as “decreased”.
